For 39 compounds, IC50 results are on record in patent publication US10144706B2 (BRISTOL-MYERS SQUIBB COMPANY, priority 2016, dated 2018).

The assay concerns the target T1, PD-1/PD-L1 interaction (PD-1-Ig / PD-L1-His) (Homo sapiens, UniProt Q9NZQ7).
T1 construct: hPDL1(18-239)-TVMV-His; TVMV protease site linker (C); made in house; host or cells: HEK293T
Nature of the assay: PD-1/PD-L1 Homogenous Time-Resolved Fluorescence (HTRF) binding assay. To be noted: PD-L1-His 10 nM, PD-1-Ig 20 nM, read-out: Range or IC50. The essentials: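 Human PD-L1-His (10 nM final) was pre-incubated with inhibitor for 15 min, then PD-1-Ig (20 nM final) was added for a further 15 min in dPBS with 0.1% BSA and 0.05% Tween-20. Binding was detected by HTRF using Eu-cryptate anti-Ig (1 nM) and APC anti-His (20 nM).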
Background: Time-resolved FRET reads energy transfer from a long-lived donor to a nearby acceptor.

Each structure is given as a SMILES string. Like-named read-outs stand apart in the source and are kept apart here.

T1 sequence (Q9NZQ7 with tags, fused parts or gaps): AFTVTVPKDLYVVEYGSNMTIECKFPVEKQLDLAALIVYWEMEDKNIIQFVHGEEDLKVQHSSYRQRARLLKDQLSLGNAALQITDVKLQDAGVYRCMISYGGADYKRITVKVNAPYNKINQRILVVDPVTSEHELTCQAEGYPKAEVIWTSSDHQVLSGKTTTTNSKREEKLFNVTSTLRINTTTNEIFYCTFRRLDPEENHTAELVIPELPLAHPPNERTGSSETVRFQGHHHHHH

Regarding `CCN(Cc1cc(Cl)c(OCc2cccc(-c3cccc(COc4cc(OCc5cncc(C#N)c5)c(CN(CC)C(CCO)C(=O)O)cc4Cl)c3C)c2C)cc1OCc1cncc(C#N)c1)C(CCO)C(=O)O` (stereo not drawn) [Example 40800], the half-inhibitory concentration (IC50) (IC50 range class) was in the range of 0.04 to 20 nM.

`Cc1c(COc2cc(OCc3cncc(C#N)c3)c(CN(C)C(CCO)C(=O)O)cc2Cl)cccc1-c1cccc(COc2cc(OCc3cncc(C#N)c3)c(CN(C)C(CCO)C(=O)O)cc2Cl)c1C` (stereo not drawn) [Example 40810]: the IC50 (IC50 range class) fell in the range of 20.1 to 90 nM.

Consider `CCCN(Cc1cc(Cl)c(OCc2cccc(-c3cccc(COc4cc(OCc5cncc(C#N)c5)c(CN(CCC)C(CCO)C(=O)O)cc4Cl)c3C)c2C)cc1OCc1cncc(C#N)c1)C(CCO)C(=O)O` (stereo not drawn) [Example 40820], for which the concentration for half-maximal inhibition (IC50) (IC50 range class) fell in the range of 0.04 to 20 nM.

In the case of `Cc1c(COc2cc(OCc3cncc(C#N)c3)c(CN(CC3CC3)C(CCO)C(=O)O)cc2Cl)cccc1-c1cccc(COc2cc(OCc3cncc(C#N)c3)c(CN(CC3CC3)C(CCO)C(=O)O)cc2Cl)c1C` (stereo not drawn) [Example 40830], where the note is “IC50 range class”, the IC50 lay within 0.04 to 20 nM.

`Cc1c(COc2cc(OCc3cncc(C#N)c3)c(CNC(CCO)C(=O)O)cc2Cl)cccc1-c1cccc(COc2cc(OCc3cncc(C#N)c3)c(CN(CC3CC3)C(CCO)C(=O)O)cc2Cl)c1C` (stereo not drawn) [Example 40840]: the IC50 (IC50 range class) was in the range of 0.04 to 20 nM.

Turning to `Cc1c(COc2cc(OCc3cncc(C#N)c3)c(CN(CC(C)C)C(CCO)C(=O)O)cc2Cl)cccc1-c1cccc(COc2cc(OCc3cncc(C#N)c3)c(CN(CC(C)C)C(CCO)C(=O)O)cc2Cl)c1C` (stereo not drawn) [Example 40850], the IC50 (IC50 range class) fell in the range of 0.04 to 20 nM.

Consider `Cc1c(COc2cc(OCc3cncc(C(N)=O)c3)c(CN[C@@H](CCO)C(=O)O)cc2Cl)cccc1-c1cccc(COc2cc(OCc3cncc(C(N)=O)c3)c(CN[C@@H](CCO)C(=O)O)cc2Cl)c1C` [Example 40870], for which, under “IC50 range class”, the IC50 lay within 0.04 to 20 nM.

With `Cc1c(COc2cc(OCc3cncc(C#N)c3)c(CN[C@@H](C(=O)O)[C@H](C)O)cc2Cl)cccc1-c1cccc(COc2cc(OCc3cncc(C#N)c3)c(CN[C@@H](C(=O)O)[C@H](C)O)cc2Cl)c1C` [Example 40880], the IC50 (IC50 range class) lay within 0.04 to 20 nM.

In the case of `Cc1c(COc2cc(OCc3cncc(C#N)c3)c(CN[C@@H](C(=O)O)[C@@H](C)O)cc2Cl)cccc1-c1cccc(COc2cc(OCc3cncc(C#N)c3)c(CN[C@@H](C(=O)O)[C@@H](C)O)cc2Cl)c1C` [Example 40890], where the note is “IC50 range class”, the concentration for half-maximal inhibition (IC50) is 0.04 to 20 nM.

With `COC(=O)[C@@H](NCc1cc(Cl)c(OCc2cccc(-c3cccc(COc4cc(OCc5cncc(C#N)c5)c(CN[C@H](C(=O)OC)[C@H](C)O)cc4Cl)c3C)c2C)cc1OCc1cncc(C#N)c1)[C@H](C)O` [Example 40900], the IC50 (IC50 range class) was in the range of 1000 to 10000 nM.

On to `COC(=O)[C@H](NCc1cc(Cl)c(OCc2cccc(-c3cccc(COc4cc(OCc5cncc(C#N)c5)c(CN[C@H](C(=O)O)C(=O)OC)cc4Cl)c3C)c2C)cc1OCc1cncc(C#N)c1)C(=O)O` [Example 40910], for which the IC50 (IC50 range class) lay in the range of 1000 to 10000 nM.

On to `Cc1c(COc2cc(OCc3cncc(C#N)c3)c(CN[C@H](C(=O)O)[C@@H](C)OC(C)(C)C)cc2Cl)cccc1-c1cccc(COc2cc(OCc3cncc(C#N)c3)c(CN[C@H](C(=O)O)[C@@H](C)OC(C)(C)C)cc2Cl)c1C` [Example 40930], for which, under “IC50 range class”, the IC50 lay in the range of 0.04 to 20 nM.

For the compound `CO[C@H](C)[C@H](NCc1cc(Cl)c(OCc2cccc(-c3cccc(COc4cc(OCc5cncc(C#N)c5)c(CN[C@H](C(=O)O)[C@@H](C)OC)cc4Cl)c3C)c2C)cc1OCc1cncc(C#N)c1)C(=O)O` [Example 40940], for the setting “IC50 range class”, the IC50 was 0.04 to 20 nM.

`COC(=O)[C@@H](NCc1cc(Cl)c(OCc2cccc(-c3cccc(COc4cc(OCc5cncc(C#N)c5)c(CN[C@H](C(=O)OC)[C@@H](C)OC(C)(C)C)cc4Cl)c3C)c2C)cc1OCc1cncc(C#N)c1)[C@@H](C)OC(C)(C)C` [Example 40950]: the IC50 (numeric IC50) is 168 nM.

Turning to `Cc1c(COc2cc(OCc3cncc(C#N)c3)c(CN[C@@H](C(=O)O)[C@H](C)OCc3ccccc3)cc2Cl)cccc1-c1cccc(COc2cc(OCc3cncc(C#N)c3)c(CN[C@@H](C(=O)O)[C@H](C)OCc3ccccc3)cc2Cl)c1C` [Example 40960], the IC50 (IC50 range class) lay within 20.1 to 90 nM.

As to `Cc1c(COc2cc(OCc3cncc(C#N)c3)c(CN(Cc3cncs3)C(CCO)C(=O)O)cc2Cl)cccc1-c1cccc(COc2cc(OCc3cncc(C#N)c3)c(CN(Cc3cncs3)C(CCO)C(=O)O)cc2Cl)c1C` (stereo not drawn) [Example 40990], the IC50 (IC50 range class) is 0.04 to 20 nM.

Turning to `Cc1c(COc2cc(OCc3cncc(C#N)c3)c(CN(CCC(C)C)C(CCO)C(=O)O)cc2Cl)cccc1-c1cccc(COc2cc(OCc3cncc(C#N)c3)c(CN(CCC(C)C)C(CCO)C(=O)O)cc2Cl)c1C` (stereo not drawn) [Example 41010], under “IC50 range class”, the IC50 was 0.04 to 20 nM.

As to `Cc1c(COc2cc(OCc3cncc(C#N)c3)c(CN(CC3CCCO3)C(CCO)C(=O)O)cc2Cl)cccc1-c1cccc(COc2cc(OCc3cncc(C#N)c3)c(CN(CC3CCCO3)C(CCO)C(=O)O)cc2Cl)c1C` (stereo not drawn) [Example 41020], the IC50 (IC50 range class) lay within 0.04 to 20 nM.

In the case of `Cc1c(COc2cc(OCc3cncc(C#N)c3)c(CNC(CCO)C(=O)O)cc2Cl)cccc1-c1cccc(COc2cc(OCc3cncc(C#N)c3)c(CN(CC3CCCO3)C(CCO)C(=O)O)cc2Cl)c1C` (stereo not drawn) [Example 41030], under “IC50 range class”, the IC50 lay within 0.04 to 20 nM.

In the case of `Cc1c(COc2cc(OCc3cncc(C#N)c3)c(CN[C@H](C(=O)O)[C@@H](C)OCc3ccccc3)cc2Cl)cccc1-c1cccc(COc2cc(OCc3cncc(C#N)c3)c(CN[C@H](C(=O)O)[C@@H](C)OCc3ccccc3)cc2Cl)c1C` [Example 41050], the IC50 (IC50 range class) was in the range of 20.1 to 90 nM.

Regarding `Cc1c(COc2cc(OCc3cncc(C#N)c3)c(CN[C@H](CCO)C(=O)O)cc2Cl)cccc1-c1cccc(COc2cc(OCc3cncc(C#N)c3)c(CN[C@H](CCO)C(=O)O)cc2Cl)c1C` [Example 41090], the IC50 (IC50 range class) lay within 0.04 to 20 nM.

For `Cc1c(COc2cc(OCc3cncc(C#N)c3)c(CN[C@H](C(=O)O)[C@@H](C)O)cc2Cl)cccc1-c1cccc(COc2cc(OCc3cncc(C#N)c3)c(CN[C@H](C(=O)O)[C@@H](C)O)cc2Cl)c1C` [Example 41100], the IC50 (IC50 range class) lay in the range of 0.04 to 20 nM.

For the compound `Cc1c(COc2cc(OCc3cncc(C#N)c3)c(CN[C@H](C(=O)O)[C@H](C)O)cc2Cl)cccc1-c1cccc(COc2cc(OCc3cncc(C#N)c3)c(CN[C@H](C(=O)O)[C@H](C)O)cc2Cl)c1C` [Example 41110], the 50% inhibitory concentration (IC50) (IC50 range class) lay in the range of 0.04 to 20 nM.

For `Cc1c(COc2cc(OCc3cncc(C#N)c3)c(CN[C@@H](C(=O)O)[C@H](C)O)cc2Cl)cccc1-c1cccc(COc2cc(OCc3cncc(C#N)c3)c(CN[C@@H](C(=O)O)[C@@H](C)O)cc2Cl)c1C` [Example 41130], the IC50 (IC50 range class) was in the range of 0.04 to 20 nM.

`C[C@@](CO)(NCc1cc(Cl)c(OCc2cccc(-c3cccc(COc4cc(OCc5cncc(C#N)c5)c(CN[C@@](C)(CO)C(=O)O)cc4Cl)c3Cl)c2Cl)cc1O)C(=O)O` [Example 41170]: the IC50 (IC50 range class) lay in the range of 0.04 to 20 nM.

For the compound `N#Cc1cncc(COc2cc(OCc3cccc(-c4cccc(COc5cc(O)c(CNC(CCO)C(=O)O)cc5Cl)c4Cl)c3Cl)c(Cl)cc2CNC(CCO)C(=O)O)c1` (stereo not drawn) [Example 41180], the IC50 (IC50 range class) lay in the range of 0.04 to 20 nM.

For `C[C@](CO)(NCc1cc(Cl)c(OCc2cccc(-c3cccc(COc4cc(OCc5cncc(C#N)c5)c(CN[C@](C)(CO)C(=O)O)cc4Cl)c3Cl)c2Cl)cc1OCc1cncc(C#N)c1)C(=O)O` [Example 41190], for the setting “IC50 range class”, the IC50 is 0.04 to 20 nM.

In the case of `CC(CO)(NCc1cc(Cl)c(OCc2cccc(-c3cccc(COc4cc(OCc5cncc(C#N)c5)c(CNC(C)(CO)C(=O)O)cc4Cl)c3Cl)c2Cl)cc1OCc1cncc(C#N)c1)C(=O)O` (stereo not drawn) [Example 41200], under “IC50 range class”, the IC50 lay in the range of 0.04 to 20 nM.

For `Cc1c(COc2cc(OCc3cncc(C#N)c3)c(CN[C@](C)(CO)C(=O)O)cc2Cl)cccc1-c1cccc(COc2cc(OCc3cncc(C#N)c3)c(CN[C@](C)(CO)C(=O)O)cc2Cl)c1C` [Example 41210], for the setting “IC50 range class”, the IC50 fell in the range of 0.04 to 20 nM.

Regarding `COc1ccc(CNCc2cc(Cl)c(OCc3cccc(-c4cccc(COc5cc(OCc6cncc(C#N)c6)c(CNCc6ccc(OC)cc6OC)cc5Cl)c4C)c3C)cc2OCc2cncc(C#N)c2)c(OC)c1` [Example 41230], the IC50 (IC50 range class) lay in the range of 20.1 to 90 nM.

`N#Cc1cncc(COc2cc(OCc3cccc(-c4cccc(COc5cc(OCc6cncc(C#N)c6)c(CN6CCCC[C@H]6C(=O)O)cc5Cl)c4)c3)c(Cl)cc2CO)c1` [Example 50020]: the IC50 (IC50 range class) lay in the range of 20.1 to 90 nM.

For the compound `N#Cc1cncc(COc2cc(OCc3cccc(-c4cccc(COc5cc(OCc6cncc(C#N)c6)c(CN6CCC(O)(C(=O)O)CC6)cc5Cl)c4)c3)c(Cl)cc2CO)c1` [Example 50040], for the setting “numeric IC50”, the IC50 stood at 115 nM.

Take `Cc1c(COc2cc(OCc3cncc(C#N)c3)c(CO)cc2Cl)cccc1-c1cccc(COc2cc(OCc3cncc(C#N)c3)c(CNC(CO)(Cc3ccccc3)C(=O)O)cc2Cl)c1C` (stereo not drawn) [Example 50060]: the IC50 (IC50 range class) fell in the range of 0.04 to 20 nM.

Take `Cc1c(COc2cc(OCc3cncc(C#N)c3)c(CO)cc2Cl)cccc1-c1cccc(COc2cc(OCc3cncc(C#N)c3)c(CNCC(O)CC(=O)O)cc2Cl)c1C` (stereo not drawn) [Example 50070]: the IC50 (IC50 range class) was in the range of 0.04 to 20 nM.

Regarding `Cc1c(COc2cc(OCc3cncc(C#N)c3)c(CO)cc2Cl)cccc1-c1cccc(COc2cc(OCc3cncc(C#N)c3)c(CN3CCOC[C@@H]3C(=O)O)cc2Cl)c1C` [Example 50100], the 50% inhibitory concentration (IC50) (IC50 range class) is 0.04 to 20 nM.

As to `Cc1c(COc2cc(OCc3cncc(C#N)c3)c(CO)cc2Cl)cccc1-c1cccc(COc2cc(OCc3cncc(C#N)c3)c(CN3CCCC(C(=O)O)C3)cc2Cl)c1C` (stereo not drawn) [Example 50110], under “IC50 range class”, the IC50 was 0.04 to 20 nM.

As to `Cc1c(COc2cc(OCc3cncc(C#N)c3)c(CO)cc2Cl)cccc1-c1cccc(COc2cc(OCc3cncc(C#N)c3)c(CN3CCC[C@H](C(=O)O)C3)cc2Cl)c1C` [Example 50120], the IC50 (IC50 range class) was in the range of 0.04 to 20 nM.

As for `Cc1c(COc2cc(OCc3cncc(C#N)c3)c(CO)cc2Cl)cccc1-c1cccc(COc2cc(OCc3cncc(C#N)c3)c(CN[C@@H](CCO)C(=O)O)cc2Cl)c1C` [Example 50150], the IC50 (IC50 range class) fell in the range of 0.04 to 20 nM.

Consider `Cc1c(COc2cc(OCc3cncc(C#N)c3)c(CO)cc2Cl)cccc1-c1cccc(COc2cc(OCc3cncc(C#N)c3)c(CN(CC(C)C)C(CCO)C(=O)O)cc2Cl)c1C` (stereo not drawn) [Example 50170], for which, under “IC50 range class”, the IC50 lay in the range of 0.04 to 20 nM.

Usually IC50 stands for the midpoint of a concentration-inhibition curve.
